Data set [1] concerns HCV replicon RNA replication. As to the kind of experiment: HCV replicon assay (quantification of replicon RNA, Northern blot / Taqman kinetic PCR). The class given is cell-based. Particulars: Hepatitis C virus, Huh-7, 72 h. As for the experimental part: Assay Method: The activity of the compounds was assayed using an adaptation of the method reported by Lohmann et al [V. Lohmann et al., Science, 1999, 285, 110-113].
The HCV replicon-containing cell line is used for the identification of small molecules that are able to inhibit the replication of the replicon RNA. Since the replicon RNA replication mimics the replication of the HCV RNA in infected hepatocytes, it is believed that those small molecules that have the above property are interesting for further development as anti-HCV drugs.
The inhibition of the HCV replicon RNA replication will lead to a decrease of the replicon RNA in the cell, which can be measured using a method that specifically quantifies this RNA.
Northern blot: One method for quantification of this RNA uses the standard Northern blot known to any person skilled in the art.
Kinetic PCR: A second assay for the quantification of replicon RNA is based on the amplification of the replicon RNA that remains in the cell, after incubation of the cells with a proper concentration of the small molecules. This method involves the reverse transcription of the replicon RNA to the corresponding complementary DNA (cDNA), followed by amplification of the cDNA using the Taqman Kinetic PCR technology (PE Biosystems). This consists of hybridisation of the cDNA with a complementary reporter oligonucleotide (probe), containing a combined fluorescent dye and a quencher dye. Amplification of the DNA sequence containing the hybridised reporter probe, using flanking oligonucleotide primers will lead to the separation of the fluorescent dye from the quencher dye. This will result in an increase of the fluorescence during each amplification cycle.
The neomycin phosphotransferase gene sequence that is present in the replicon RNA was chosen for amplification using specifically designed oligonucleotide primers. To control for (a) cell number that can vary depending on the toxicity or cytostatic effect of the small molecules, and (b) for errors during total RNA extraction, amplification of the host β-actin gene is used for normalisation.
The accumulation of the PCR products during the reaction is monitored directly by measuring the increase in fluorescence of the reporter dye. The amount of HCV replicon RNA (and β-actin RNA) originally present in the total RNA extracted from the cells is then expressed as a threshold cycle, e.g. the cycle at which there is a statistically significant increase in the fluorescence above the background.
For this procedure, HCV replicon-containing human hepatoma Huh7 cells (9-13) in growth medium (DMEM) containing 5% FCS are plated in a 96-well plate at 5×10^3 cells per well, and the plate incubated overnight. 24 hours later, different dilutions in 0.1 ml growth medium of chemical compounds were added to the wells, and the plate further incubated at 37° C. for three days. Total RNA coming from each well is extracted using the RNeasy™ procedure (Qiagen manufacturer instructions), and the total RNA is eluted in a final volume of 0.13 ml. Next, a 2 μl sample of the total RNA is used for convertion into cDNA using a reverse transcription (RT) step. A RT mastermix containing 1 μl 10× Taqman RT buffer, 2.2 μl 25 mM MgCl2 (5.5 mM final conc.), 2 μl dNTP mix (500 μM each), 0.5 μl random hexamer primers (2.5 μM), 0.2 μl RNase inhibitor (0.4 u/μl ), 0.25 μl RT (1.25 u/μl ), 1.85 μl H2O, was distributed in a 96-well plate and 2 μl total RNA was added to each well.
The RT reaction is performed by incubation of the plate 10 min at 25° C., 30 min at 48° C., 5 min at 95° C. and cooling to 4° C. The cDNA samples are then stored at −20° C. or directly used for the PCR reaction. […]
Background: Replicon systems follow genome replication, usually without infectious particles.

Data set [2] deals with HCV replicon RNA replication. Nature of the data set: HCV replicon assay, Renilla luciferase reporter. The class given is cell-based. As to conditions: Hepatitis C virus, Huh-7, 72 h; Renilla luciferase HCV replicon cells (2209-23, Huh7), three days incubation; concentration reducing luciferase activity/replicon level by 50%.
The mark [3] stands for this setting: HCV replicon-containing human hepatoma Huh7 cells (9-13), three days incubation, concentration reducing replicon RNA levels by 50%, read-out: IC50.

Molecules are shown by their SMILES.

As a reminder, the IC50 is the concentration that gives 50% inhibition. The melting point is the temperature, or range, at which the solid turns liquid.

In the case of `OC[C@H]1O[C@@H](n2cnc3c(-c4ccsc4)ncnc32)[C@H](O)[C@@H]1O` [Example 181, 9-(β-D-Ribofuranosyl)-6-(3-thienyl)purine], the melting point is 166 to 167 °C (dec.). In data set [1], this compound returned an IC50 of 0.05 µM.
The compound `Nc1ccn([C@@H]2O[C@H](CO)[C@H](O)[C@H]2O)c(=O)n1` [Example 247, 1-(β-D-xylofuranosyl)cytosine] gave an IC50 in data set [2] of 3.7 µM.
In data set [2], `Nc1ccn([C@@H]2C[C@H](CO)[C@@H](O)[C@H]2O)c(=O)n1` [Example 246, 4-amino-1(R)-(2(S),3(R)-dihydroxy-4(R)-hydroxymethyl-cyclopentyl)-1H-pyrimidin-2-one] displayed a 50% inhibitory concentration (IC50) of 0.4 µM.
`OC[C@H]1O[C@@H](n2cnc3c(-c4ccccc4)ncnc32)[C@H](O)[C@@H]1O` [Example 182, 6-Phenyl-9-(β-D-ribofuranosyl)purine] returned a melting point of 224 to 225 °C. In addition, the IC50 in data set [1] (setting [3]) came to 0.1 µM.
In data set [2], `Nc1ccn([C@@H]2O[C@H](CO)[C@H](F)[C@H]2O)c(=O)n1` [Example 249, 1-(3-deoxy-3-fluoro-β-D-xylofuranosyl)cytosine] returned an IC50 of 10.4 µM.
Same read-out and setting: the result for `CCNc1ncnc2c1ncn2[C@@H]1O[C@H](CO)[C@@H](O)[C@H]1O` [Example 252, 6-ethylamino-9-(β-D-ribofuranosyl)purine] reads 14 µM.
Consider `OC[C@H]1O[C@@H](n2cnc3c(N4CCc5ccccc5C4)ncnc32)[C@H](O)[C@@H]1O` [Example 57, 9-(β-D-Ribofuranosyl)-6-(1,2,3,4-tetrahydro-2-isoquinolyl)purine], for which, in data set [1] (setting [3]), the IC50 was determined as 0.1 µM.
Regarding `C=CCNc1ncnc2c1ncn2[C@@H]1O[C@H](CO)[C@@H](O)[C@H]1O` [Example 80, 6-(2-Propenyl)amino-9-(β-D-ribofuranosyl)purine], in data set [1], the IC50 worked out at 5.7 µM.
`CCCNc1ncnc2c1ncn2[C@@H]1O[C@H](CO)[C@@H](O)[C@H]1O` [Example 253, 6-propylamino-9-(β-D-ribofuranosyl)purine] displayed an IC50 in data set [2] of 7 µM.
Consider `OC[C@H]1O[C@@H](n2cnc3c(N4CCCC4)ncnc32)[C@H](O)[C@@H]1O` [Example 77, 6-(1-Pyrrolidinyl)-9-(β-D-ribofuranosyl)purine], for which, in data set [1] (setting [3]), the IC50 came out at 2.6 µM.
Regarding `N=c1c2ncn([C@@H]3O[C@H](CO)[C@@H](O)[C@H]3O)c2ncn1Cc1ccccc1` [Example 93, 1-Benzyl-6-imino-9-(β-D-ribofuranosyl)purine], in data set [1] (setting [3]), the IC50 was 4.5 µM.
